Data from PubChem BioAssay (NCI).
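Interpolation was linear, between the two tested concentrations surrounding the appropriate level; five concentrations were tested over 48 hours in 96-well plates. At the GI50, growth is halved. TGI: total growth inhibition.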

What was measured:
Assay in all cases: DTP human tumour cell line panel, 48 h
786-0 renal = system: 786-0 renal
OVCAR-8 ovarian = system: OVCAR-8 ovarian
EKVX NSCLC = system: EKVX NSCLC
CAKI-1 renal = system: CAKI-1 renal
RXF 393 renal = system: RXF 393 renal
HCC-2998 colon = system: HCC-2998 colon
UACC-257 melanoma = system: UACC-257 melanoma
MALME-3M melanoma = system: MALME-3M melanoma
SK-MEL-2 melanoma = system: SK-MEL-2 melanoma
NCI-H522 lung = system: NCI-H522 lung
OVCAR-4 ovarian = system: OVCAR-4 ovarian
T-47D breast = system: T-47D breast
NCI-H23 lung = system: NCI-H23 lung
SNB-75 CNS = system: SNB-75 CNS
BT-549 breast = system: BT-549 breast
A549 NSCLC = system: A549 NSCLC
TK-10 renal = system: TK-10 renal
SR leukemia = system: SR leukemia
HS 578T breast = system: HS 578T breast
K-562 leukemia = system: K-562 leukemia
RPMI-8226 leukemia = system: RPMI-8226 leukemia
PC-3 prostate = system: PC-3 prostate
DU-145 prostate = system: DU-145 prostate
MCF7 breast = system: MCF7 breast
KM12 colon = system: KM12 colon
ACHN renal = system: ACHN renal
UACC-62 melanoma = system: UACC-62 melanoma
NCI/ADR-RES ovarian = system: NCI/ADR-RES ovarian
SK-MEL-28 melanoma = system: SK-MEL-28 melanoma
SK-OV-3 ovarian = system: SK-OV-3 ovarian
HCT-116 colon = system: HCT-116 colon
OVCAR-5 ovarian = system: OVCAR-5 ovarian
MDA-MB-435 = system: MDA-MB-435
SW-620 colon = system: SW-620 colon
HOP-62 NSCLC = system: HOP-62 NSCLC
SN12C renal = system: SN12C renal
UO-31 renal = system: UO-31 renal
IGROV1 ovarian = system: IGROV1 ovarian
SF-268 CNS = system: SF-268 CNS
LOX IMVI melanoma = system: LOX IMVI melanoma
HL-60(TB) leukemia = system: HL-60(TB) leukemia
HCT-15 colon = system: HCT-15 colon
NCI-H460 lung = system: NCI-H460 lung
NCI-H226 lung = system: NCI-H226 lung
U251 CNS = system: U251 CNS
M14 melanoma = system: M14 melanoma
SF-539 CNS = system: SF-539 CNS
MOLT-4 leukemia = system: MOLT-4 leukemia
SF-295 CNS = system: SF-295 CNS
OVCAR-3 ovarian = system: OVCAR-3 ovarian
HT29 colon = system: HT29 colon
SK-MEL-5 melanoma = system: SK-MEL-5 melanoma
MDA-N = system: MDA-N
COLO 205 colon = system: COLO 205 colon
MDA-MB-231 breast = system: MDA-MB-231 breast
HOP-92 NSCLC = system: HOP-92 NSCLC
SNB-19 CNS = system: SNB-19 CNS
A498 renal = system: A498 renal

`CCc1ccc([OH2+])c(C(=O)[O-])c1.CCc1ccc([OH2+])c(C(=O)[O-])c1.CCc1ccc([OH2+])c(C(=O)[O-])c1.CCc1ccc([OH2+])c(C(=O)[O-])c1.[Cu+2].[Cu+2]` was tested, and the GI50 (786-0 renal) was over 100 µM, the TGI (786-0 renal) was over 100 µM and the GI50 (OVCAR-8 ovarian) was 5.59 µM. The TGI (OVCAR-8 ovarian) was over 100 µM, the GI50 (EKVX NSCLC) was over 100 µM and the TGI (EKVX NSCLC) was over 100 µM. It also gave a GI50 (CAKI-1 renal) of 24.9 µM, a TGI (CAKI-1 renal) of over 82.4 µM and a GI50 (RXF 393 renal) of over 46.8 µM. It also gave a TGI (RXF 393 renal) of over 94.5 µM, a GI50 (HCC-2998 colon) of 64.8 µM and a TGI (HCC-2998 colon) of over 100 µM. It also gave a GI50 (UACC-257 melanoma) of over 100 µM, a TGI (UACC-257 melanoma) of over 100 µM and a GI50 (MALME-3M melanoma) of over 100 µM. It also gave a TGI (MALME-3M melanoma) of over 100 µM, a GI50 (SK-MEL-2 melanoma) of over 91.3 µM and a TGI (SK-MEL-2 melanoma) of over 100 µM. For the same compound, the GI50 (NCI-H522 lung) was over 86 µM, the TGI (NCI-H522 lung) was over 100 µM and the GI50 (OVCAR-4 ovarian) was 28.3 µM. It also gave a TGI (OVCAR-4 ovarian) of over 100 µM, a GI50 (T-47D breast) of over 100 µM and a TGI (T-47D breast) of over 100 µM. It also gave a GI50 (NCI-H23 lung) of over 100 µM, a TGI (NCI-H23 lung) of over 100 µM and a GI50 (SNB-75 CNS) of 40.6 µM. For the same compound, the TGI (SNB-75 CNS) was over 89.3 µM, the GI50 (BT-549 breast) was 78.6 µM and the TGI (BT-549 breast) was over 100 µM. The GI50 (A549 NSCLC) was 38.6 µM, the TGI (A549 NSCLC) was over 100 µM and the GI50 (TK-10 renal) was over 85.8 µM. The TGI (TK-10 renal) was over 100 µM, the GI50 (SR leukemia) was 24.5 µM and the TGI (SR leukemia) was over 100 µM. It also gave a GI50 (HS 578T breast) of over 100 µM, a TGI (HS 578T breast) of over 100 µM and a GI50 (K-562 leukemia) of 38.1 µM. It also gave a TGI (K-562 leukemia) of over 73.9 µM, a GI50 (RPMI-8226 leukemia) of 41.3 µM and a TGI (RPMI-8226 leukemia) of over 100 µM. For the same compound, the GI50 (PC-3 prostate) was over 70.5 µM, the TGI (PC-3 prostate) was over 100 µM and the GI50 (DU-145 prostate) was 70.1 µM. It also gave a TGI (DU-145 prostate) of over 100 µM, a GI50 (MCF7 breast) of 35 µM and a TGI (MCF7 breast) of over 100 µM. For the same compound, the GI50 (KM12 colon) was 53.6 µM, the TGI (KM12 colon) was over 100 µM and the GI50 (ACHN renal) was over 100 µM. For the same compound, the TGI (ACHN renal) was over 100 µM, the GI50 (UACC-62 melanoma) was 70.5 µM and the TGI (UACC-62 melanoma) was over 100 µM. It also gave a GI50 (NCI/ADR-RES ovarian) of 17.3 µM, a TGI (NCI/ADR-RES ovarian) of over 100 µM and a GI50 (SK-MEL-28 melanoma) of over 100 µM. It also gave a TGI (SK-MEL-28 melanoma) of over 100 µM, a GI50 (SK-OV-3 ovarian) of 23.9 µM and a TGI (SK-OV-3 ovarian) of over 68.2 µM. The GI50 (HCT-116 colon) was over 100 µM, the TGI (HCT-116 colon) was over 100 µM and the GI50 (OVCAR-5 ovarian) was 32.3 µM. The TGI (OVCAR-5 ovarian) was 70.2 µM, the GI50 (MDA-MB-435) was 49.3 µM and the TGI (MDA-MB-435) was over 100 µM. It also gave a GI50 (SW-620 colon) of over 100 µM, a TGI (SW-620 colon) of over 100 µM and a GI50 (HOP-62 NSCLC) of over 100 µM. For the same compound, the TGI (HOP-62 NSCLC) was over 100 µM, the GI50 (SN12C renal) was 98.3 µM and the TGI (SN12C renal) was over 100 µM. The GI50 (UO-31 renal) was over 100 µM, the TGI (UO-31 renal) was over 100 µM and the GI50 (IGROV1 ovarian) was over 69.6 µM. It also gave a TGI (IGROV1 ovarian) of over 100 µM, a GI50 (SF-268 CNS) of over 100 µM and a TGI (SF-268 CNS) of over 100 µM. The GI50 (LOX IMVI melanoma) was over 100 µM, the TGI (LOX IMVI melanoma) was over 100 µM and the GI50 (HL-60(TB) leukemia) was 2400 nM. For the same compound, the TGI (HL-60(TB) leukemia) was over 44.4 µM, the GI50 (HCT-15 colon) was over 88.2 µM and the TGI (HCT-15 colon) was over 100 µM. The GI50 (NCI-H460 lung) was 52.6 µM, the TGI (NCI-H460 lung) was over 100 µM and the GI50 (NCI-H226 lung) was over 50.2 µM. It also gave a TGI (NCI-H226 lung) of over 100 µM, a GI50 (U251 CNS) of over 59.9 µM and a TGI (U251 CNS) of over 100 µM. For the same compound, the GI50 (M14 melanoma) was over 100 µM, the TGI (M14 melanoma) was over 100 µM and the GI50 (SF-539 CNS) was over 100 µM. For the same compound, the TGI (SF-539 CNS) was over 100 µM, the GI50 (MOLT-4 leukemia) was 34.2 µM and the TGI (MOLT-4 leukemia) was over 100 µM. For the same compound, the GI50 (SF-295 CNS) was 50.8 µM, the TGI (SF-295 CNS) was over 100 µM and the GI50 (OVCAR-3 ovarian) was 36.5 µM. The TGI (OVCAR-3 ovarian) was over 100 µM, the GI50 (HT29 colon) was 44.7 µM and the TGI (HT29 colon) was over 100 µM. It also gave a GI50 (SK-MEL-5 melanoma) of 17.6 µM, a TGI (SK-MEL-5 melanoma) of 42.9 µM and a GI50 (MDA-N) of over 71.1 µM. The TGI (MDA-N) was over 100 µM, the GI50 (COLO 205 colon) was over 100 µM and the TGI (COLO 205 colon) was over 100 µM. For the same compound, the GI50 (MDA-MB-231 breast) was over 100 µM, the TGI (MDA-MB-231 breast) was over 100 µM and the GI50 (HOP-92 NSCLC) was over 95.9 µM. The TGI (HOP-92 NSCLC) was over 100 µM, the GI50 (SNB-19 CNS) was 36.8 µM and the TGI (SNB-19 CNS) was over 61.8 µM. For the same compound, the GI50 (A498 renal) was 21.2 µM and the TGI (A498 renal) was 40.5 µM.
